pIC50: −log10 of the molar value.
Tests used:
[1] = Toxicity in rats after 14 consecutive days of administration, survival; conditions: 14 days continuous administration, compared with controls
CYP1A2 = CYP1A2 (Homo sapiens (Human), UniProt P05177); assay: Cytochrome P450 inhibition (fluorescence), CYP1A2; type: in vitro ADME; conditions: read-out: IC50 CYP1A2
Description: (§1) Enzymatic experiments were performed to quantify the inhibition of CYP450 enzyme activity of each isoform of CYP450 by small molecule inhibitors through fluorescence generated by the oxidation of the substrate by cytochrome P450. […] The Solution B composition used for the experiment was: 40 U/mL G6PDH (Sigma-aldrich, Cat #G6378). The substrate mix was 0.05× Solution A, 0.01× Solution B, 50 mM Potassium Phosphate, 0.01 mM BOMCC/0.01 mM EOMCC/0.001 mM DBOMF. […] The data were analyzed and processed using GraphPad Prism 6 software to obtain IC50 values.

CYP2C19 = CYP2C19 (Homo sapiens (Human), UniProt P33261); assay: Cytochrome P450 inhibition (fluorescence), CYP2C19; type: in vitro ADME; conditions: read-out: IC50 CYP2C19
CYP2C19, sequence (P33261 whole entry): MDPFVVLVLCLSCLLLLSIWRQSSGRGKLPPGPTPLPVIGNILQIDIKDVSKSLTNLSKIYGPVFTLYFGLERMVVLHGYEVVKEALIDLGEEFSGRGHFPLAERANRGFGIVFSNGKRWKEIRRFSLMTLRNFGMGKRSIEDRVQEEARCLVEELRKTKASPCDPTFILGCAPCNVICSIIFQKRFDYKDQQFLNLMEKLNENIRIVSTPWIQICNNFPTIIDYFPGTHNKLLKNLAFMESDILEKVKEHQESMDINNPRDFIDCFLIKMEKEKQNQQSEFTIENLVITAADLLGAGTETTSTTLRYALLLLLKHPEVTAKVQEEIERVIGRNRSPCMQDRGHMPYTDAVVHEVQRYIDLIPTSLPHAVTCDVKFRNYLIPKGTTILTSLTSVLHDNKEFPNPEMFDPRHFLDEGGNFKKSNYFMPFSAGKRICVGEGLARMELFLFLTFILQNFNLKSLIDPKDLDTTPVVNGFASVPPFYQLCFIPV
Description: as §1

CYP1A2, sequence (P05177 whole entry, canonical isoform): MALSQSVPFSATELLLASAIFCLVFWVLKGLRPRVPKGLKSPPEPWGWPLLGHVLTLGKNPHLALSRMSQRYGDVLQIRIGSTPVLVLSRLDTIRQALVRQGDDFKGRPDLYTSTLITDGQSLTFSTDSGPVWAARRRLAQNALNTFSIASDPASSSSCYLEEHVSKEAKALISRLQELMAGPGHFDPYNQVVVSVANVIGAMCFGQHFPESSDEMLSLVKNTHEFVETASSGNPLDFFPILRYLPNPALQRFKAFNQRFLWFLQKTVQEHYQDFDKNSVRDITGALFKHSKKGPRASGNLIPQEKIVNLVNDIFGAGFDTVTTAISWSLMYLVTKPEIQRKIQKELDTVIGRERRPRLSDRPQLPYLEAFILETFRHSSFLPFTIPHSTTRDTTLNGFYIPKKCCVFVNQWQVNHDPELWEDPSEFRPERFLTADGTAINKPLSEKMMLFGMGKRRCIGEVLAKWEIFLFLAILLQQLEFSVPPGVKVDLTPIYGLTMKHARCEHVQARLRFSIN

## [2H][C@]1(O)c2nc(-n3c4nc(Nc5ccc(N6CCC7(CCN(C)CC7)CC6)cc5)ncc4c(=O)n3CC=C)ccc2CCC12CC2 [Compound 37b]
[1]
  Survival rate of rats (in words): significantly better than that in the control compound AZD1775 group and the control compound ZnC3 group

## C=CCn1c(=O)c2cnc(Nc3ccc(N4CCN(C)CC4)cc3)nc2n1-c1cccc(C(C)(C)O)n1 [AZD1775, reference compound]
CYP1A2
  pIC50: < 5.00
CYP2C19
  pIC50: 5.00 to 6.00

Reference: patent publication US20250304587A1, “WEE1 INHIBITOR, PREPARATION THEREFOR AND USE THEREOF” (JIANGSU TASLY DIYI PHARMACEUTICAL CO., LTD., priority 2022, published 2025)
